What was measured:
[1] = tested on: phospholipase A2; conditions: anterior pituitary; cited from earlier work
[2] = tested on: Rauscher leukemia virus; test: Example 2: Rauscher leukemia virus (RLV) model; format: in vivo, Balb/c mice
From the text: As noted earlier, the Rauscher leukemia virus (RLV) model has been used successfully to test a number of compounds like nucleoside analogues, that is, AZT, and which has been utilized, heretofore, to inhibit HIV replication. This is discussed in further detail in the article authored by R. M. Ruprechet, et. al. and which is entitled Development of Antiviral Treatment Strategies in Murin Models, RES. Human Retroviruses, 8,997-1011 (1992). Those skilled in the art will recognized that RLV belongs to the Onkoviruses, which is a subfamily of the retrovirus family, and not to the Lentiviruses family, such as is the case with HIV. Therefore, the RLV model provides a suitable basis upon which one may test substances which interfere with the replication steps which are common, or similar, among related retroviruses. As noted earlier, inasmuch as the melittin (Seq. ID NO:1) appears to inhibit HIV transcription in vitro, then it appears that RLV is a suitable model to test the effect of melittin on in vivo replication inhibition.
The source of virus for the present example was secured from the leukemic spleens of RLV infected Balb/c mice. The virus titer of the pool of leukemic spleens was determined by titration. This titration method is discussed in the article authored by Schmidt et al., "Endogenous Murine Leukemia Viruses: frequency of radiation-activation and novel pathogenic effects of viral isolates." Leukemia Research 12, 393-403, (1988). The spleens were secured from 8 to 10 week old inbreed female Balb/c mice, and further from in mouse embryo fibroblasts. As noted earlier, virus replication in mice normally has been determined by the development of leukemia in the spleen. Additionally, the determination of in vitro virus replication has been measured heretofore by the number of virus protein producing cells which are stained with anti-RLV antibodies in an immuno-peroxidase staining test (IPF). Aliquots of the virus solutions were stored in liquid nitrogen and were again titrated in the fashion as noted above.
Stock virus solutions were diluted to provide solutions having a virus concentration of approximately 7×10^6 infectious units per milliliter. Following preparation of the solutions, 0.5 ml of these viral solutions were injected intraperitoneally (ip) into Balb/c mice that were 8 to 10 weeks old. […] As will be recognized by a study of FIG. 43 and FIG. 48, and following infection with the RLV, nearly 100% of the mice developed leukemia (splenomegaly) within approximately three weeks. […] The mean spleen weight development became less prominent. This is best seen by reference to FIG. 48 and in particular groups 8, 9 and 10.

[3] = tested on: KE37-1 (uninfected) cells; test: MTT test, growth of non-infected cells; format: cell-based; conditions: KE37-1, seven days incubation; 10080 min
Description: The KE37-1 (uninfected) and KE37-1/111β (infected) cell lines discussed below are commercially available from the Dr. Robert Gallows Laboratory of the NIH in the United States of America and grown in a medium of RPMI 1640 (GIBCO) and further supplemented with 10% fetal calf serum which contained approximately 100 units of penicillin, 100 μg streptomycin, and approximately 0.25 μg fungizone (Amphotericin B) per milliliter. The human mesenchymal cell lines LC5 and LC5-HIV, discussed below, are deposited with the Collection De L'Institut Pasteur of Paris, France on Mar. 9, 1989 and given the accession numbers I-842 and I-843, respectively. The LC5 and LC5-HIV cell lines were grown in a medium of RPMI 1640 and supplemented with 10% fetal calf serum.
Referring more particularly to FIGS. 1-4, melittin (Seq. ID NO:1) and its specified analogues were tested for their effect on HIV-infected T-lymphoma cells. In this regard the following cell lines were employed in the testing: KE37-1 (uninfected) and KE37-1/111S (infected with HTLV-111β). These infected cells were incubated for a period of seven days under test conditions at a temperature of 37° C. and in the presence of 5% CO2. […] The optical density (OD) of the solution was determined at=600 nm. […]

[4] = all treated groups, regardless of schedule
[5] = group 1, after infection, intervals of 4 days
[6] = group 2, after infection, intervals of 2 days
[7] = group 3, after infection, daily

Q: What does the source list for “Gly-Ile-Gly-Ala-Val-Leu-Lys-Val-Leu-Thr-Thr-Gly-Leu-Pro-Ala-Leu-Ile-Ser-Trp-Ile-Lys-Arg-Lys-Arg-Gln-Gln-Amide [melittin]”?
A: effect on phospholipase A2 [1]: stimulates endogenous phospholipase A2 in the anterior pituitary leading to growth hormone secretion; animals that developed leukemia [2, 4]: 70%; mean spleen weight [2, 4]: 1.2 grams; spleen weights, treated vs untreated, in words ([2]; days 5 and 10, five administrations before and six after infection): quite similar with only a slight difference appearing on day 10; leukemic animals, in words ([2]; days 5 and 15 (so in the source)): no leukemic animals could be found on days 5 and 15; leukemic animals [2, 5]: 4 out of 6; mean spleen weight [2, 5]: 1.1 grams; leukemic animals [2, 6]: 5 out of 6; mean spleen weight [2, 6]: 1.3 grams; mean spleen weight ([2]; group 2, pre-treated, 5 injections, FIG. 45): 1.5 grams; leukemic animals [2, 7]: 5 out of 6; mean spleen weight [2, 7]: 1.1 grams; mean spleen weight ([2]; group 3, pre-treated, 4 injections, FIG. 45): 1.5 grams; mean spleen weight ([2]; group 4, pre-treated, 3 injections, FIG. 45): 1.3 grams; mean spleen weight ([2]; group 5, once before infection and five times later in four day intervals): approximately 1.3 grams; number of leukemic animals ([2]; group 6, day 15, ten analyzed): one; mean spleen weight ([2]; group 6, single injection 12 hours before infection): 1.1 grams; mean spleen weight ([2]; group 7, single injection 24 hours before infection): 0.7 grams; animals that develop leukemia ([2]; group 8, day 21): 7 out of 10; mean spleen weight ([2]; group 8, day 21): 1.2 grams; mean spleen weight ([2]; group 8, single injection 6 hours before infection): 0.9 grams; development of leukemia, in words ([2]; pre-treated animals, FIG. 45): nearly all of the pre-treated animals also developed leukemia; concentration toxic to non-infected cells [3]: above 5 μg per ml
